The test system of data set [1] is human platelet suspensions stimulated with collagen. The experiment in a line: Collagen-induced platelet aggregation (turbidimetric, lumi-aggregometer). In kind it is cell-based. The source says: (§1) This study received approval from the Taipei Medical University–Joint Institutional Review Board (TMU-JIRB-No. N202003148) and adhered to the principles of the Declaration of Helsinki. Informed consent was obtained from all volunteers before their participation. Human platelets were washed and prepared according to previously established methods ([Lu et al., 2019]). Whole blood was collected from healthy participants who had not taken any medications, including nonsteroidal anti-inflammatory drugs or aspirin, in the preceding 2 weeks. The blood was drawn into polypropylene tubes containing an acid citrate–dextrose solution (9:1, v/v). After mixing, the samples were centrifuged at 120 g for 10 min. The upper layer of platelet-rich plasma was collected and supplemented with prostaglandin E1 and heparin. Following further centrifugation at 500 g for 10 min, the platelet pellets were washed twice. The platelets were then resuspended in Tyrode’s solution containing 3.5 mg/mL bovine serum albumin (B.S.A.) to create platelet suspensions. The final Ca^2+ concentration of the platelet suspensions (3.6 × 10^8 cells/mL) was 1 mM.
Platelet aggregation was measured using a lumi-aggregometer (Payton, Scarborough, Canada) through the turbidimetric method ([Lu et al., 2019]). Human platelet suspensions (3.6 × 10^8 cells/mL) were treated with compound 6 (1–50 μM) or an isovolumetric solvent control (0.1% DMSO) for 3 min. Subsequently, various agonists were added and platelet aggregation was then recorded for an additional 6 min.
FIGURE 2 Effects of compound 6 on human platelet aggregation triggered by various agonists. (A–C) Washed platelets (3.6 × 10^8 cells/mL) were treated with compound 6 (1–50 μM) or dimethyl sulfoxide (DMSO; solvent control) before adding 1 μg/mL collagen (A), 0.02 U/mL thrombin (B), and 1 μM U46619 (C). Panels A–C present the curve of platelet aggregation, and panel D presents the statistical analysis of panels A–C. Data (D) are presented as means ± SEM (n = 4). ###p < 0.001 compared with the DMSO group.

Data set [2] has as its system human platelet suspensions stimulated with thrombin. The experiment in a line: Thrombin-induced platelet aggregation. The note with it: 5–50 μM, 0.02 U/mL thrombin. In kind it is cell-based.
Excerpt: as §1
(§2) Platelet aggregation was measured using a lumi-aggregometer (Payton, Scarborough, Canada) through the turbidimetric method ([Lu et al., 2019]). […] Subsequently, various agonists were added and platelet aggregation was then recorded for an additional 6 min. […]

Data set [3] concerns human platelet suspensions stimulated with U46619. The experiment in a line: U46619-induced platelet aggregation. As to conditions: 5–50 μM, 1 μM U46619. In kind it is cell-based.
Excerpt: as §1, §2

Data set [4] relates to human platelet suspensions stimulated with convulxin. Put plainly: Convulxin-induced platelet aggregation. In kind it is cell-based. The note with it: 10–50 μM, convulxin 4 ng/mL.
Excerpt: as §1, §2

For data set [5], the system named is tail bleeding (hemostasis). The experiment in a line: Tail-bleeding assay. The note with it: 0.3, 0.6 or 1.2 mg/kg, mice, n = 6. The data set is classed as in vivo. The protocol:
For the tail-bleeding assay, the mice were anesthetized with an oxygen–air mixture containing 3% isoflurane at a gas flow rate of 1.5–2 L/min. A bolus dose of compound 6 (0.3 mg/kg, 0.6 mg/kg, or 1.2 mg/kg), DMSO (solvent control; 1.1 g/kg), or aspirin (20 mg/kg; positive control) was intraperitoneally administered for 30 min. A 3-mm incision was then made at the tail tip to induce bleeding. The bleeding tail stump was immediately immersed in saline, and the bleeding time was recorded. […] A formula for dose translation based on the […] was used to calculate the dose for use in the mice ([Reagan-Shaw et al., 2008]).
FIGURE 3 Effects of compound 6 on thrombosis and hemostasis in mice. Mice were treated with compound 6 (0.3, 0.6, or 1.2 mg/kg), DMSO (solvent control), or aspirin (20 mg/kg; positive control) via intravenous route for 10 min. (A) The microthrombus formation (arrows) in mesenteric venules. Scale bar = 30 μm. […] Each point on the plot indicates a mouse (n = 6). Data (A,B) are presented as means ± SEM (n = 6). *p < 0.05 and ***p < 0.001 compared with the DMSO group.

Data set [6] addresses T1, recombinant human GPVI (Homo sapiens, UniProt Q9HCN6).
T1 sequence (Q9HCN6 21-267 limits assumed): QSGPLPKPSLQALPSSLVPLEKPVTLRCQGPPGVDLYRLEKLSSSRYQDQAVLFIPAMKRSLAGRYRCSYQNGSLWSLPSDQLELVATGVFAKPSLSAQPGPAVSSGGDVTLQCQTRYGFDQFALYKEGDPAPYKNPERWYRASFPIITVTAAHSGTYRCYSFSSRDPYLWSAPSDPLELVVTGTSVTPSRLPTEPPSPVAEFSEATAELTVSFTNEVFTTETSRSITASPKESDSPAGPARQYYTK
Put plainly: Surface plasmon resonance binding assay (OpenSPR). As to conditions: his-tagged recombinant GPVI on NTA chip, compound at 0.1 and 1 μM; read-out: KD (equilibrium dissociation constant). The protocol: Surface plasmon resonance (SPR) analysis was performed using an OpenSPR instrument (Nicoya, Kitchener, Canada). A nitrilotriacetic acid (NTA) sensor chip was installed in the OpenSPR instrument. Running buffer (phosphate-buffered saline) was pumped at the maximum flow rate, and 80% isopropanol was injected to remove any bubbles. Subsequently, 200 μL of a 200 mM imidazole solution was injected to prime the sensor surface. After rinsing the chip with running buffer, 200 μL of a 40 mM NiCl2 solution was used to activate the NTA chip. After 5 min of interaction time, his-tagged recombinant GPVI proteins were bound to the NTA chip by perfusing the GPVI protein solution at a flow rate of 20 μL/min. Solutions of compound 5 or compound 6 (0.1 and 1 μM) were then injected. The equilibrium dissociation constant (KD) was determined using the OpenSPR system (Nicoya).
An SPR binding assay was performed. First, recombinant human GPVI was coated on the NTA sensor chip. Solutions of compound 5 and compound 6 (0.1 and 1 μM) were then perfused on the chip, and the KD was determined using the OpenSPR system (Nicoya Lifesciences).
FIGURE 7 Direct binding of compound 6 on GPVI. […] Equilibrium dissociation constant (KD) were determined using the OpenSPR system. […]
Background: In SPR one partner is held on a chip, and binding of the other changes the refractive index at the surface.

Structures are written as SMILES.

Data on one compound can be found in paper PMC12234328, “A naphthalimide derivative exerts potent antiplatelet and antithrombotic activities without a bleeding tendency” (Frontiers in Pharmacology, 2025).

As to `CCCCN1C(=O)c2cccc3c(NCCNC(=O)C45CC6CC(CC(C6)C4)C5)ccc(c23)C1=O` [compound 6], in data set [1] (5 μM, collagen 1 μg/mL, Supplementary Figure S1), the “Antiplatelet effect at the same concentration, compound 6 versus compound 5” value is given as “better antiplatelet effects than compound 5”. The half-inhibitory concentration (IC50) in data set [1] (Platelet, washed human platelets, 1 μg/mL collagen) is about 2500 nM. For the same compound, the “Potency in inhibiting collagen-induced platelet aggregation relative to compound 5” value in data set [1] (comparison with ref Shih et al., 2021) is listed as “twice as high”. For the same compound, the “Effect on thrombin-induced platelet aggregation” value in data set [2] is recorded as “did not significantly affect”. In addition, the “Effect on U46619-induced platelet aggregation” value in data set [3] is given as “did not significantly affect”. Also, the “Effect on convulxin-induced platelet aggregation” value in data set [4] is on record as “can inhibit convulxin-induced platelet aggregation”. In addition, the Duration of tail-bleeding result in data set [5] is listed as “did not significantly affect”. In data set [6], the Kd came out at 160 nM.

One may read the IC50 as the concentration at which inhibition is half-maximal. As usually defined, the Kd is the constant that tells how readily two partners part at equilibrium.
